In patent publication US20070197590A1, “SUBSTITUTED DIPIPERIDINE CCR2 ANTAGONISTS” (priority 2006, published 2007):

Assays:
CCR2 = target: T1, CCR2 (Homo sapiens, UniProt P41597); test: MCP-1 Receptor Binding Assay in THP-1 Cells; details: THP-1 cells, 0.5 nM 125I labeled MCP-1, 2 hours at 30° C.; read-out: Inhibition of MCP-1 Binding IC50
T1 construct: host or cells: THP-1 cells
T1 sequence (P41597 1-360 isoform P41597-2): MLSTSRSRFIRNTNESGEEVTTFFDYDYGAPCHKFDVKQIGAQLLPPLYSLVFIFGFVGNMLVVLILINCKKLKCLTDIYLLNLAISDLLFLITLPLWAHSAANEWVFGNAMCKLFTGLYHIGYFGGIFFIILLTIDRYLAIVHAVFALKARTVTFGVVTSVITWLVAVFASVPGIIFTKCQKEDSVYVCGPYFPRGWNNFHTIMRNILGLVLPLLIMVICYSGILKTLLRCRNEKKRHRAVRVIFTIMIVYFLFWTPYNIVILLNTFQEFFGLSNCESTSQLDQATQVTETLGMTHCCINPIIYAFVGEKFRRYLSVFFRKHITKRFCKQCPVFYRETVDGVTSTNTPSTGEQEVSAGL
In short: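 Whole THP-1 cells incubated 2 h at 30° C with 0.5 nM 125I-MCP-1 and varying compound concentrations; bound radioactivity harvested on filters and counted by scintillation. Nonspecific binding with 1 μM cold MCP-1; IC50 for inhibition of binding versus vehicle.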

[1] = system: MCP-1 induced calcium ion influx in THP-1 cells; test: MCP-1 Induced Calcium Mobilization in THP-1 Cells; assay type: cell-based; details: Homo sapiens, THP-1, THP-1 cells, 0.2 μM MCP-1, FLIPR; read-out: Inhibition of MCP-1 Induced Calcium Ion Influx IC50
In short: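 Fluo-3-loaded (5 μM, 45 min) THP-1 cells preincubated 15 min with compound. Calcium change after 0.2 μM MCP-1 addition read by FLIPR relative to vehicle; IC50 values derived.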

[2] = system: MCP-1 induced chemotaxis of THP-1 cells; test: MCP-1 Induced Chemotaxis in THP-1 Cells; assay type: cell-based; details: Homo sapiens, MCP-1 0.01 μg/mL, 3 hours at 37° C., read-out: Inhibition of MCP-1 Induced Chemotaxis IC50
Method: MCP-1 induced chemotaxis was run in a 24-well chemotaxis chamber. MCP-1 (0.01 μg/mL) was added to the lower chamber and 100 μL of THP-1 cells (1×10^7 cell/mL) was added to the top chamber. Varying concentrations of test compound were added to the top and bottom chambers. Cells were allowed to chemotax for 3 hours at 37° C. and 5% CO2. An aliquot of the cells that had migrated to the bottom chamber was taken and counted then compared to vehicle.
Table 3 lists IC50 values for inhibition of MCP-1 induced chemotaxis.

SMILES	IC50 (CCR2) [nM]	IC50 [1] [nM]	IC50 [2] [nM]
O=C(/C=C/c1cc(F)c(F)c(F)c1)N1CCC(O)(C(O)CN2CCC(c3ccc(Cl)cc3)CC2)CC1 (stereo not drawn) [Compound 163]	0.2	120	5
O=C(/C=C/c1cc(F)cc(F)c1)N1CCC(O)(C(O)CN2CCC(c3ccc(Cl)cc3)CC2)CC1 (stereo not drawn) [Compound 164]	50	60	2
O=C(Nc1ccc(Cl)c(Cl)c1)N1CCC(O)(C(O)CN2CCC(c3ccc(Cl)cc3)CC2)CC1 (stereo not drawn) [Compound 165, 4-{2-[4-(4-chloro-phenyl)-piperidin-1-yl]-1-hydroxy-ethyl}-4-hydroxy-piperidine-1-carboxylic acid (3,4-dichloro-phenyl)-amide]	50	900	120
O=C(Nc1ccc(Cl)c(Cl)c1)N1CCC(O)(C(O)CN2CCC(c3c[nH]c4ccc(F)cc34)CC2)CC1 (stereo not drawn) [Compound 167, 4-{2-[4-(5-fluoro-1H-indol-3-yl)-piperidin-1-yl]-1-hydroxy-ethyl}-4-hydroxy-piperidine-1-carboxylic acid (3,4-dichloro-phenyl)-amide]	460	940	4
O=C(Nc1ccc(Cl)c(Cl)c1)N1CCC(O)(C(O)CN2CCC(c3c[nH]c4ccc(N5CCOCC5)cc34)CC2)CC1 (stereo not drawn) [Compound 181, 4-hydroxy-4-{1-hydroxy-2-[4-(5-morpholin-4-yl-1H-indol-3-yl)-piperidin-1-yl]-ethyl}-piperidine-1-carboxylic acid (3,4-dichloro-phenyl)-amide]	270	2100	180
